Results reported in patent publication US20120010178A1, “METHODS AND COMPOUNDS FOR TREATMENT OF NEURODEGENERATIVE DISORDERS” (PRESIDENT AND FELLOWS OF HARVARD COLLEGE, priority 2008, published 2012).
“Also recorded” adds a separate entry of the source. Residues, ends and D or L forms follow the SMILES beside them. *: point of attachment. Cbz = O=C(OCc1ccccc1)*

What was measured:
SMN [1] = assay: High-content fibroblast screen for compounds that modulate SMN level; conditions: for SMN level in fibroblast screen (increase or decrease): human fibroblasts, 2-3 days with compound; for concentration at which SMN level was increased: during screening;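 on all read-outs here: Anti-SMN immunostaining with confocal imaging of nuclear and cytoplasmic SMN and gem counts, tested at 0.1, 1 and 10 uM, fold change relative to negative control wells on each plate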
Method: Human fibroblasts were incubated for 2-3 days with compounds from annotated collections. Cells were fixed and stained with an anti-SMN antibody. Confocal imaging was used to quantify SMN fluorescence in nucleus and cytoplasm and count Gems. Data were collected and subsequently analyzed by clustering compounds by suspected mechanism of action and chemical structure.
Following optimization of assay conditions on day 0, total of 500 human fibroblasts (GM09677 line) per well were seeded in 384-well plates, on day 3 they were treated with compounds (robot CyBio) from the annotated collections and on the 5 day plates were fixed and stained (robot MAPD) with an anti-SMN antibody and secondary antibody conjugated with 448 fluorophore (FIG. 19a). Compounds from the libraries were added in duplicate at three final concentrations of 10, 1 and 0.1 uM.
SMN detection was done on the automated confocal microscope Opera PerkinElmer with separate fluorescent exposures to 488 nM laser for and a UV light source to detect nuclei stained with Hoechst 33258 with a 20× objective.
After scanning on the Opera, an XML file extraction workflow, designed with Inforsense KDE, was used to assemble the data from multiple replicate plates of each HCS experiment including the quantitative parameters described above and chemical identities, chemical concentrations and indications of which wells were used for positive and negative controls. […] The fold-induction of SMN intensity values for each well treated with a library chemical were normalized to the SMN average intensity in multiple negative control wells per plate.
Since it is not known which form of SMN increase is the most essential, hits that scored in a duplicate at least in two different parameters greater than 1.3 fold at any of the three concentrations were selected (FIG. 19d). […] Further, 220 compounds were screened in the absence of anti-SMN primary antibody with the same assay conditions, to filter out the fluorescent compounds.

SMN [2] = assay: SMN immunofluorescence quantification (cytoplasm, nucleus, GEMs) in fibroblasts from SMA patients; type: cell-based, human; conditions: for levels of cytoplasmic and nuclear SMN (in words) / fold increase in cytoplasmic SMN / fold increase in nuclear SMN: SMA patient fibroblasts; for levels of cytoplasmic and nuclear SMN (in words): substance alone
Method: Specifically, fibroblasts from patients suffering from SMA were treated with Ionomycin (a channel modulator), Ouabain (a cardiac glycoside and channel modulator), PDGF, SAHA (an HDAC inhibitor), Lactacystin (a proteasome inhibitor) or WIN 55,212-2 (a cannabinoid receptor […] and GPCR ligand) for 72 hours. The cells were fixed with methanol/acetone and stained with Pharmingen BD antibodies, followed by 488 AlexaFluor staining. Images were obtained with 60× lens on Zeiss LSM510 META on an inverted confocal microscope.
For example, fibroblasts from patients suffering from SMA were treated with Ouabain, Digoxin or Lanatoside at a concentration of 0, 2.5 nM, 5 nM, 10 nM, 20 nM, 40 nM, 80 nM, […] for 72 hours. The cells were fixed with methanol/acetone and stained with Pharmingen BD antibodies, followed by 488 AlexaFluor staining. Images were obtained with 60× lens on Zeiss LSM510 META on an inverted confocal microscope.
An assay was established for high-content evaluation of SMN protein level in different cellular compartments after treatment with small molecules. SMN protein was visualized by immunofluorescent staining and multiple fields from each plate well were scanned by an automated confocal Opera microscope. […] For each well, the algorithm generated quantitative parameters representing number of cells, as well as SMN fluorescent intensity per cell in cytoplasm, nucleus, number and intensity of GEMs (FIG. 15). […] During the assay transfer to the robotic platform fixation with the ice cold methanol was technically limited, therefore to preserve the maximum possible window we chose to perform the screen on parental fibroblast with PFA fixation.
For fibroblast assays, human fibroblasts lines GM09677 (derived from patient with SMA type 1 disease) and GM03814 (derived from unaffected parental SMA carriers) were used (Coriell Cell Repositories). […] For secondary assays cells from GM09677 line were used.
Fibroblasts were grown in MEM media (Invitrogen) supplemented with 5% Fetal Bovine Serum (FBS, Invitrogen), 2 mM glutamine and 1% penicillin-streptomycin (100 U/ml) in a presence of 5% CO2 at 37° C. For drug treatments, cells were plated and treated 24 h later with 10 μM MG132 (Biomol International), […] Calpeptin (Biomol International), 10 mM ammonium chloride, 1 μM myristoylated PKI, or vehicle for the designated times.
Compounds were stored at appropriate temperature and dissolved accordingly to the manufacturers (Tocris, Enzo, EMD and Sigma-Aldrich) in DMSO (Sigma-Aldrich), unless stated otherwise (Monensin Na in EtOH, DMPQ in water). Growth factors and PDGF neutralizing antibodies (R&D Systems) were reconstituted with buffers recommended by the supplier. For generation of the dose curves, 1×10^3 fibroblasts were plated on to 96-well Greiner Senso plates (VWR) and treated with compounds on the second day then fixed and stained at the indicated time points. For GSK inhibitors and performing p-GSK3b(Ser9) detection, two days after plating growth media containing 5% FBS was replaced to the media with FBS reduced down to 0.5%, to starve cells for 72 hours. Addition of the GSK inhibitors was done in 5% FBS enriched media.

| Compound | SMN level in fibroblast screen (increase or decrease) (SMN [1]) | levels of cytoplasmic and nuclear SMN (in words) (SMN [2]) | also measured |
| --- | --- | --- | --- |
| C[C@H]1O[C@@H](O[C@H]2[C@@H](O)C[C@H](O[C@H]3[C@@H](O)C[C@H](O[C@H]4CC[C@@]5(C)[C@H](CC[C@@H]6[C@@H]5C[C@@H](O)[C@]5(C)[C@@H](C7=CC(=O)OC7)CC[C@]65O)C4)O[C@@H]3C)O[C@@H]2C)C[C@H](O)[C@@H]1O [Digoxin] | increase SMN | – | – |
| O=C1Nc2ccc3ncsc3c2/C1=C/Nc1ccc(S(=O)(=O)Nc2ccccn2)cc1 [GW8510] | SMN is increase | – | – |
| CNc1ccc2oc(C[C@H]3O[C@@]4(CC[C@H]3C)O[C@H]([C@H](C)C(=O)c3ccc[nH]3)[C@H](C)C[C@H]4C)nc2c1C(=O)O [Calcimycin] | increase SMN | elevation of SMN levels; also recorded: active in elevating the levels of SMN; also recorded: generally active | levels of cytoplasmic and nuclear SMN (in words) (SMN [2]; listed as A23187): active |
| C[C@@H]1O[C@@H](O[C@H]2C[C@@H](O)[C@]3(CO)[C@H]4[C@H](O)C[C@]5(C)[C@@H](C6=CC(=O)OC6)CC[C@]5(O)[C@@H]4CC[C@]3(O)C2)[C@H](O)[C@H](O)[C@H]1O [Ouabain] | increase SMN | increase in SMN levels | SMN level in fibroblast screen (increase or decrease) (SMN [1]; listed as ouabain): consistently emerged as hits |
| CC(C)C[C@@H](C=O)NC(=O)[C@H](CC(C)C)NC(=O)[C@H](CC(C)C)NC(=O)OCc1ccccc1 [MG-132] (Cbz-Leu-Leu-Leu-aldehyde) | increase SMN | – | – |
| ceramide | increase SMN | – | – |
| Cc1c(C(=O)c2cccc3ccccc23)c2cccc3c2n1[C@H](CN1CCOCC1)CO3 [WIN 55, 212-2] | increase SMN | increase in SMN levels | fold increase in cytoplasmic SMN (SMN [2]): 1.5 fold; fold increase in nuclear SMN (SMN [2]): 2 fold |
| N#CCCc1ccc2c(c1)-c1[nH]c3ccc([N+](=O)[O-])cc3c1CC(=O)N2 | SMN is increase | able to elevate SMN in patient fibroblasts | – |
| CC(C)[C@@H]1NC(=O)[C@H](C)OC(=O)[C@@H](C(C)C)NC(=O)[C@@H](C(C)C)OC(=O)[C@H](C(C)C)NC(=O)[C@H](C)OC(=O)[C@@H](C(C)C)NC(=O)[C@@H](C(C)C)OC(=O)[C@H](C(C)C)NC(=O)[C@H](C)OC(=O)[C@@H](C(C)C)NC(=O)[C@@H](C(C)C)OC1=O [Valinomycin] | increase SMN | – | – |
| CC(=O)N[C@@H](CSC(=O)[C@]1([C@@H](O)C(C)C)NC(=O)[C@H](C)[C@@H]1O)C(=O)O [Lactacystin] | increase SMN | increase in SMN levels | effect on GEMs (number / intensity, in words) (SMN [2]; fibroblasts): mostly affected GEMs |
| CCCCC/C=C\C/C=C\C/C=C\C/C=C\CCCC(=O)NCCO [Anandamide] | increase SMN | – | – |
| COc1ccc(C[C@H]2NC[C@H](O)[C@H]2OC(C)=O)cc1 [Anysomycin] | increase SMN | – | concentration at which SMN level was increased (SMN [1]): 0.1 µM |
| Coumermycin A1 | increase SMN | – | concentration at which SMN level was increased (SMN [1]): 10 µM |
| OCCN(CCO)c1nc(N2CCCCC2)c2nc(N(CCO)CCO)nc(N3CCCCC3)c2n1 [Dipyridamole] | increase SMN | – | – |
| C/C=C(/C)C(=O)O[C@H]1C(C)=C2[C@H]([C@@H]1OC(=O)CCCCCCC)[C@@](C)(OC(C)=O)C[C@H](OC(=O)CCC)[C@@]1(O)[C@H]2OC(=O)[C@@]1(C)O [Thapsigargin] | increase SMN | active in elevating the levels of SMN; also recorded: generally active; also recorded: caused SMN upregulation | levels of cytoplasmic and nuclear SMN (in words) (SMN [2]; listed as thapsigagin): elevation of SMN levels |
| C[C@H](CCC(=O)O)C[C@H](C)C[C@H](C)C(=O)/C=C(\O)[C@H](C)C[C@H](C)C/C=C/[C@@H](C)[C@@H](O)[C@@H](C)[C@@H](O)C[C@@H]1CC[C@@](C)([C@H]2CC[C@@](C)([C@@H](C)O)O2)O1 [Ionomycin] | increase SMN | increase in SMN levels; also recorded: active in elevating the levels of SMN; also recorded: able to increase SMN level | levels of cytoplasmic and nuclear SMN (in words) (SMN [2]; listed as ionomycin): elevation of SMN levels; also recorded: active |
| CC[C@@]1([C@@H]2O[C@@H]([C@H]3O[C@@](O)(CO)[C@H](C)C[C@@H]3C)C[C@@H]2C)CC[C@H]([C@]2(C)CC[C@]3(C[C@H](O)[C@@H](C)[C@@H]([C@@H](C)[C@@H](OC)[C@H](C)C(=O)O)O3)O2)O1 [Monensin Na] | increase SMN | – | fold increase in nuclear SMN (SMN [2]): 2 fold |
| O=C(Nc1cc(C(F)(F)F)cc(C(F)(F)F)c1)c1cc(Cl)ccc1O [IMD-0354] | SMN is increase | – | – |
| O=C(CCCCCCC(=O)Nc1ccccc1)NO [SAHA, Suberoylanilide Hydroxamic Acid] | increase SMN | increase in SMN levels | effect on GEMs (number / intensity, in words) (SMN [2]; fibroblasts): increased GEM counts at the lower concentrations; nuclear SMN at the higher dosage (in words) (SMN [2]; fibroblasts, higher dosage): increased nuclear SMN predominantly |
| O=C(Nc1ccc([N+](=O)[O-])cc1Cl)c1cc(Cl)ccc1O [Niclosamide] | SMN is increase | – | – |
| O=C1Nc2ccc3ncsc3c2C1=Cc1cnc[nH]1 [PKR inhibitor, 6,8-Dihydro-8-(1H-imidazol-5-ylmethylene)-7H-pyrrolo[2,3-g]benzothiazol-7-one] | SMN is increase | – | fold increase in cytoplasmic SMN (SMN [2]): 2 fold; fold increase in nuclear SMN (SMN [2]): 1.5 fold |
| CC(=O)O[C@H]1C[C@H](O[C@H]2[C@@H](O)C[C@H](O[C@H]3[C@@H](O)C[C@H](O[C@H]4CC[C@@]5(C)[C@H](CC[C@@H]6[C@@H]5C[C@@H](O)[C@]5(C)[C@@H](C7=CC(=O)OC7)CC[C@]65O)C4)O[C@@H]3C)O[C@@H]2C)O[C@H](C)[C@H]1O[C@@H]1O[C@H](CO)[C@@H](O)[C@H](O)[C@H]1O [Lanatoside C] | increase SMN | – | – |
| C[C@H]1O[C@@H](O[C@H]2[C@@H](O)C[C@H](O[C@H]3[C@@H](O)C[C@H](O[C@H]4CC[C@@]5(C)[C@H](CC[C@@H]6[C@@H]5CC[C@]5(C)[C@@H](C7=CC(=O)OC7)CC[C@]65O)C4)O[C@@H]3C)O[C@@H]2C)C[C@H](O)[C@@H]1O [Dititoxin] | increase SMN | – | – |
| Nc1ccc(-c2cccc3c(=O)cc(N4CCOCC4)oc23)cc1 [PI-828] | decreased SMN | – | – |
| Clc1ccc2ncnc(NCc3ccc4c(c3)OCO4)c2c1 [MBCQ] | increase SMN | – | – |
